Holding throughout (assay type): cell-based
Test [1] concerns BRAF V600E human melanoma cell lines. Kind of test: 3D proliferation assay (CellTiter-Glo) with synergy analysis, BRAF V600E melanoma panel. On the procedure: (§1) As examples, BRAF V600E human melanoma, BRAF V600E human colorectal carcinoma (CRC), and NRAS mutant human melanoma cell lines were grown in 3D conditions. Briefly, 96-well plates were coated with 50 μL of Matrigel (100%) and incubated at 37° C. and 5% CO2 for 30 min in order for the Matrigel to solidify. Cells were seeded in 100 μL of 2% Matrigel containing medium. After an overnight incubation (17-22 hours), cells were treated with VS-6766+/−BRAF V600 inhibitor (e.g., vemurafenib, dabrafenib, encorafenib), VS-6766+/−pan-RAF inhibitor (e.g., belvarafenib, naporafenib, lifirafenib, tovorafenib), or MEK inhibitor (e.g., cobimetinib, trametinib, binimetinib)+/−BRAF (e.g., vemurafenib, dabrafenib, encorafenib) inhibitor for 7 days. VS-6766 and MEK inhibitors were used at 1:5 dilutions starting at 5 μM. BRAF V600 inhibitors and pan-RAF inhibitors were used at 1:3 dilutions starting at 5 μM. Cell viability was measured using the cell viability CellTiter-Glo assay.
(§2) Raw data and metadata files were processed with a custom R-script for single agent and combination activity. Bliss, Loewe, Highest Single Agent (HSA) and ZIP synergy analysis were performed to generate a composite synergy score. Summary graphics and reports were saved for visualization and further analysis.

The subject of test [2] is NRAS mutant human melanoma cell lines. The test is described as follows: 3D proliferation assay (CellTiter-Glo) with synergy analysis, NRAS mutant melanoma panel. Particulars: VS-6766 + pan-RAF inhibitor (e.g., belvarafenib, naporafenib, lifirafenib, tovorafenib); 7 days; 3 NRAS mutant melanoma cell lines; Bliss, Loewe, HSA, ZIP (FIGS. 7, 8). The procedure: as §1, §2
Test [3] concerns BRAF V600E human colorectal carcinoma (CRC) cell lines. Kind of test: 3D proliferation assay (CellTiter-Glo) with synergy analysis, BRAF V600E CRC panel. On the procedure:
as §1, §2

The text below walks through data of US20250009746A1, “COMBINATION THERAPY FOR TREATING ABNORMAL CELL GROWTH” (Verastem, Inc., priority 2021, published 2025).

“Also recorded” adds a separate entry of the source.

Consider `CNS(=O)(=O)Nc1nccc(Cc2c(C)c3ccc(Cc4ncccn4)cc3oc2=O)c1F` [VS-6766], for which the “synergy of VS-6766+BRAFi compared with synergy of MEKi+BRAFi” value in test [1] (BRAF V600E melanoma cell lines, composite synergy score (FIG. 1)) is listed as “better”; in test [3] (BRAF V600E colorectal carcinoma cell lines, composite synergy score (FIG. 4)) it was “better”. The “synergy of VS-6766+vemurafenib compared with synergy of cobimetinib+vemurafenib” value in test [1] (BRAF V600E melanoma cell lines, dose-response matrices, each agent starting at 5 μM, Bliss synergy shown (FIG. 2)) was “better”; in test [3] (BRAF V600E colorectal carcinoma cell lines, dose-response matrices, each agent starting at 5 μM, Bliss synergy shown (FIG. 5)), “better”. Besides, the “synergy of VS-6766+dabrafenib compared with synergy of trametinib+dabrafenib” value in test [1] (BRAF V600E melanoma cell lines, dose-response matrices, each agent starting at 5 μM, Bliss synergy shown (FIG. 3)) was “better”; in test [3] (BRAF V600E colorectal carcinoma cell lines, dose-response matrices, each agent starting at 5 μM, Bliss synergy shown (FIG. 6)), “better”. In addition, the “synergy with BRAF V600 inhibitors in reducing cell viability” value is “synergistic” in test [1] (VS-6766 + BRAF V600 inhibitor (e.g., vemurafenib, dabrafenib, encorafenib), 7 days, 5 BRAF V600E melanoma cell lines, Bliss, Loewe, HSA, ZIP composite synergy score) and “synergistic” in test [3] (VS-6766 + BRAF V600 inhibitor (e.g., vemurafenib, dabrafenib, encorafenib), 7 days, 3 BRAF V600E CRC cell lines, Bliss, Loewe, HSA, ZIP composite synergy score). In addition, the “synergy with pan-RAF inhibitors in reducing cell viability” value in test [2] is “strong synergy; also recorded: synergistic”.
